# Reference: patent publication US20080280837A1, “Biologically Active Compounds with Anti-Angiogenic Properties” (priority 2004, published 2008)
# Values joined by “and” are separate entries in the source; they are usually repeats but may differ in a detail not shown here. Equal entries are not always repeated. Where two headings read alike, the source gives them in different places.
# Assays:
# [1] = In vivo pharmacokinetic evaluation after i.v. and p.o. administration to rats; conditions: rat, plasma, po, 25 mg/Kg, Rat 3, PO; calculated using AUC0-480; read-out: BA (oral bioavailability)
# [2] = ActiveTox suite of toxicity assays (LDH release, proliferation, ATP content, caspase 3/7, cyp1A induction, P-glycoprotein inhibition, cyp3A induction via PXR or GR); format: cell-based; conditions: 10 and 100 μM, quadruplicate
# Description: Compounds were analyzed in eight separate assays at concentrations of 10 and 100 μM in quadruplicate. Compounds were assayed tar toxicity via LDH release, inhibition of proliferation, ATP content, caspase 3/7 activation. Compounds were assayed for induction of cyp1A and P-glycoprotein inhibition. Compounds were also assayed for cyp3A induction under conditions which favor activation via the pregnane receptor (PXR) or the glucorticord receptor (GR). Appropriate positive and negative controls were included in each case.
# MCF—7 cell line = assay: Cell proliferation assay (CellTiter 96 AQueous One) as indicator of toxicity, MCF-7; format: cell-based; conditions: MCF—7, 100 μM
# Description: A simple cell proliferation assay was used to determine the in vitro cytotoxicity of “compound 1.” Selected cell lines were cultured according to their specific requirements. The optimal cell density required for each cell line was determined. All compounds were tested at a single concentration in triplicate. Cell viability was determined using the CellTiter 96® AQueous One reagent from Promega Corporation.
# Assays are performed by adding the test compound to the cells in culture and incubating the cells for a fixed period. The number of viable cells remaining after the incubation period is determined by adding a small amount of the CellTiter 96® AQueous One Solution Reagent directly to culture wells, incubating for 1-4 hours and then recording absorbance at 490 nm with a 96 well plate reader.
# Controls in the assay include untreated cells, wells without cells and cells treated with know cytotoxic agents. Data is presented as % inhibition of cell proliferation.
# [3] = Human hepatocyte microsomal degradation half-life; format: in vitro ADME
# Description: the final concentration of ACN in the microsomal incubation was 1%,
# samples were incubated in a water bath at 37° C., and
# 45 μL aliquots were taken over 2 hr, quenched with ACN, placed on ice for 30 min to precipitate proteins and assayed by LC/MS/MS using either the Quattro Ultima Pt, LCT or Q-T of instruments.
# in vitro = conditions: human, Caco-2
# Description: The Caco-2 assay was performed according to the procedure described in the following cited article [Caco-2 Monolayers in Experimental and Theoretical Predictions of Drug Transport, Artursson P, Palm K, Luthman K., Adv. Drug Deliv. Rev., 2001, 46, 27-43].
# [4] = system: chicken embryo chorioallantoic membrane (CAM) vasculature; assay: Early chicken embryo chorioallantoic membrane (earlyCAM) assay; format: in vivo; conditions: for Aretry length (pixels) / CAM increase (fold) / Relative artery length (absolute vessel length (pixels)/CAM area (pixels)) / Relative total vessel length (absolute vessel length (pixels)/CAM area (pixels)) / Relative vein length (absolute vessel length (pixels)/CAM area (pixels)) / Total vessel length (pixels) / Vein diameter (pixels) / Vein length (pixels): mean ± SEM, n = 8
# Description: Vein diameter was included as a measure of vessel growth. Where there was more than one major vein branch, the diameters of both were added together to give a total vein diameter. In the control CAM there were two well developed vein branches of similar diameter. In contrast, in the treated CAM there was a single major vein branch. Total vein diameter is 239 pixels in the control CAM, and only 107 pixels in the treated CAM.
# When “compound 1” was applied to the CAM, there were dose responsive reductions in CAM growth and vasculature. The effects on CAM growth and vessel parameters were expressed as pixel measures (Table 1) and also as a percentage of the vehicle treated control group (FIG. 1). Vein lengths were reduced at all dose levels of “compound 1”, both in pixel and percentage terms, with a reduction to 67% of control at 5 nmol (p<0.05). […] When artery and vein lengths were combined to give total vessel length there was a significant reduction at the 5 nmol level (FIG. 1; p<0.05). A strong trend to reduced CAM growth with increasing doses of “compound 1” was also present.
# [5] = In vivo pharmacokinetic evaluation after i.v. and p.o. administration to rats; parameters: species or system rat; conditions: for clearance: read-out: Cltotal (total plasma clearance); for Vd: read-out: VdB (volume of distribution during the elimination phase); for bioavailability: calculated using AUC0-480, read-out: BA (oral bioavailability)
# Description: Intravenous infusion of “compound 1” (2 mg/Kg) over 5 minutes to two rats and arterial blood sampled up to 24 hours.
# Oral administration of “compound 1” (25 mg/Kg as HPMC suspension) via oral gavage to two rats and arterial blood sampled up to 24 hours.
# Plasma concentrations of “compound 1” determined by MS (LOQ<0.01 μM)
# CLtotal=total plasma clearance after IV administration Vdβ=volume of distribution during the elimination phase after IV administration BA=oral bioavailability AUCIV=area under the plasma concentration versus time profile from time zero to infinity after IV administration AUCoral=area under the plasma concentration versus time profile from time zero to infinity after oral administration β=terminal elimination rate constant after IV administration
# [6] = predicted from human microsomal degradation
# [7] = rat, plasma, iv, 2 mg/Kg, IV, Mean ± SD of two rats
# [8] = rat, plasma, iv, 2 mg/Kg, Rat 1, IV
# [9] = rat, plasma, iv, 2 mg/Kg, Rat 2, IV
smiles,measurement,setting,value
COC[C@H]1O[C@H](OCCc2ccccc2)[C@H](NC(=O)CCCN)[C@@H](OCc2ccc3ccccc3c2)[C@@H]1O [Compound 1],bioavailability,[1],4.95%
same,Effects in the eight ActiveTox assays,[2],no statistical effects
same,Inhibition of cell proliferation,MCF—7 cell line,no inhibitory effect
same,CLint scaled,"[3]; human hepatocyte microsomes, pH 7.4, predicted from human microsomal degradation",62.2 mL/min/kg
same,half-life,"[3]; human hepatocyte microsomes, human microsomal incubation, 37° C., pH 7.4, read-out: Degradation t1/2",32.2 min
same,Predicted CLblood,[3]; [6],15.5 mL/min/kg
same,Predicted EH,[3]; [6],0.75
same,Papp,in vitro,1.04 ×10⁻⁶ cm/s
same,Aretry length (pixels),[4]; 0.2 nmol,1870 ± 109^ pixels
same,CAM increase (fold),[4]; 0.2 nmol,9.9 ± 0.9 fold
same,Relative artery length (absolute vessel length (pixels)/CAM area (pixels)),[4]; 0.2 nmol,43.0 ± 3.7
same,Relative total vessel length (absolute vessel length (pixels)/CAM area (pixels)),[4]; 0.2 nmol,79.9 ± 5.8
same,Relative vein length (absolute vessel length (pixels)/CAM area (pixels)),[4]; 0.2 nmol,36.9 ± 3.4
same,Total vessel length (pixels),[4]; 0.2 nmol,3498 ± 222^ pixels
same,Vein diameter (pixels),[4]; 0.2 nmol,191 ± 10 pixels
same,Vein length (pixels),[4]; 0.2 nmol,1628 ± 183^ pixels
same,Artery length as percentage of vehicle treated control (maximal reduction),[4]; 1 nmol,86 % of control
same,Aretry length (pixels),[4]; 1 nmol,1544 ± 214^ pixels
same,CAM increase (fold),[4]; 1 nmol,9.9 ± 0.8 fold
same,Relative artery length (absolute vessel length (pixels)/CAM area (pixels)),[4]; 1 nmol,34.7 ± 4.7
same,Relative total vessel length (absolute vessel length (pixels)/CAM area (pixels)),[4]; 1 nmol,71.3 ± 6.3
same,Relative vein length (absolute vessel length (pixels)/CAM area (pixels)),[4]; 1 nmol,36.5 ± 2.4
same,Total vessel length (pixels),[4]; 1 nmol,3169 ± 341^ pixels
same,Vein diameter (pixels),[4]; 1 nmol,187 ± 15 pixels
same,Vein length (pixels),[4]; 1 nmol,1625 ± 166^1 pixels
same,Reduction in vein diameter versus control,[4]; 5 nmol,approximately 25%
same,Aretry length (pixels),[4]; 5 nmol,1510 ± 196^ pixels
same,CAM increase (fold),[4]; 5 nmol,8.9 ± 0.8 fold
same,Relative artery length (absolute vessel length (pixels)/CAM area (pixels)),[4]; 5 nmol,36.4 ± 3.0
same,Relative total vessel length (absolute vessel length (pixels)/CAM area (pixels)),[4]; 5 nmol,71.6 ± 3.7
same,Relative vein length (absolute vessel length (pixels)/CAM area (pixels)),[4]; 5 nmol,35.1 ± 2.6
same,Total vessel length (pixels),[4]; 5 nmol,2939 ± 292^1 pixels
same,Vein length (pixels),[4]; 5 nmol,1429 ± 141^1 pixels
same,Vein diameter (pixels),"[4]; 5 nmol, p = 0.057",157 pixels and 157 ± 23 pixels
same,Vein length as percentage of vehicle treated control,"[4]; 5 nmol, p<0.05",67 % of control
same,Total vein diameter,"[4]; single treated CAM (control CAM 239 pixels), dose not stated",107 pixels
same,VdB (volume of distribution during the elimination phase),"[5]; IV, Mean ± SD of two rats",3.29 ± 0.56 L/kg
same,Tmax,"[5]; Rat 4, PO 25 mg/Kg",20 min
same,Tmax,"[5]; plasma, Rat 3, PO 25 mg/Kg, read-out: Tmax (converted)",20 min
same,Tmax,"[5]; rat, plasma, 25 mg/Kg, PO, mean of two rats, read-out: Tmax (converted)",20 min
same,clearance,[5]; [7],8.2 mL/min/kg
same,Vd,[5]; [7],3.3 L/kg
same,half-life,"[5]; rat, plasma, iv, 2 mg/Kg, IV, Mean ± SD of two rats, read-out: t1/2 (elimination half-life) (converted)",~276 min
same,Cmax,"[5]; rat, plasma, iv, 2 mg/Kg, Mean ± SD of two rats",31.9 ± 2.27 µM
same,Cmax,"[5]; rat, plasma, iv, 2 mg/Kg, Rat 1, IV infusion 2 mg/Kg over 5 minutes",30.3 µM
same,clearance,[5]; [8],7.53 mL/min/kg
same,Vd,[5]; [8],2.9 L/kg
same,half-life,"[5]; rat, plasma, iv, 2 mg/Kg, Rat 1, IV, read-out: t1/2 (converted)",267 min
same,Cmax,"[5]; rat, plasma, iv, 2 mg/Kg, Rat 2, IV infusion 2 mg/Kg over 5 minutes",33.5 µM
same,clearance,[5]; [9],8.86 mL/min/kg
same,Vd,[5]; [9],3.69 L/kg
same,half-life,"[5]; rat, plasma, iv, 2 mg/Kg, Rat 2, IV, read-out: t1/2 (converted)",286 min
same,Cmax,"[5]; rat, plasma, po, 25 mg/Kg, Mean ± SD of two rats",4.95 ± 2.84 µM
same,bioavailability,"[5]; rat, plasma, po, 25 mg/Kg, PO, Mean ± SD of two rats",~5.2%
same,bioavailability,"[5]; rat, plasma, po, 25 mg/Kg, Rat 4, PO",5.38%
same,Cmax,"[5]; rat, plasma, po, 25 mg/kg, Rat 3, PO 25 mg/Kg HPMC suspension",6.95 µM
same,Cmax,"[5]; rat, plasma, po, 25 mg/kg, Rat 4, PO 25 mg/Kg HPMC suspension",2.94 µM
